Results on 33 compounds are retold here after patent US20250228835A1, “PYRIDINYLOXYPYRIDINES AND RELATED COMPOUNDS AND THEIR USE IN TREATING MEDICAL CONDITIONS” (Rectify Pharmaceuticals, Inc., priority 2024, published 2025).

Molecules are shown by their SMILES. A value given as a limit tells only on which side of the number the result lay.

One test deals with T1, ABCD2 WT (Homo sapiens, UniProt Q9UBJ2).
T1 construct: expressed in transfected cells
T1 sequence (Q9UBJ2 1-740): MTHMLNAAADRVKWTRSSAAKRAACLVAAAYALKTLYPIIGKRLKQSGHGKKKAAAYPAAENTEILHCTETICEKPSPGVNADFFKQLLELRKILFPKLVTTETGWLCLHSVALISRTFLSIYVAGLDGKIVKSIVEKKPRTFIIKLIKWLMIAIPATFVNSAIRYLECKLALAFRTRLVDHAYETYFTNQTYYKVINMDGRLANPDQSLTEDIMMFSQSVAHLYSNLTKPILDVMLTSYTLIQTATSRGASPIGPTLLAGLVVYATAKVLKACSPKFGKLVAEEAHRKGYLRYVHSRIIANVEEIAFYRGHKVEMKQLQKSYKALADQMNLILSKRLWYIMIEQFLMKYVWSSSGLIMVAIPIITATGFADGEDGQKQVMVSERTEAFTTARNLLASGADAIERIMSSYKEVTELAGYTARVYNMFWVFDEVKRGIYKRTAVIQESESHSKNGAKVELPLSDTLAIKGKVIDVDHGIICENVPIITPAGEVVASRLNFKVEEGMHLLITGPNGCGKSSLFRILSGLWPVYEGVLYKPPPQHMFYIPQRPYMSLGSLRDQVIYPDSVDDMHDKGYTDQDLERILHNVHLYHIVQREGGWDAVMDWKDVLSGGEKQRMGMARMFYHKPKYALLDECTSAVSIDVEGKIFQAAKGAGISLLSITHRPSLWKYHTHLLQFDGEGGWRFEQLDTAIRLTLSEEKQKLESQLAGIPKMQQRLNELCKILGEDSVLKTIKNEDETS
Nature of the test: D2 correction dose-response assay: ABCD2 WT HiBit protein expression. Format: cell-based. The conditions noted are these: HEK-293/ABCD2 WT cells, 24 hours treatment, HiBit luminescence; class combines EC50 and Mean MaxAct (fold); read-out: ABCD2 WT EC50, Emax. Here is the method: Exemplary compounds were evaluated in a D2 correction dose-response assay.
(§1) To assess activity against ABCD2, the compounds were screened in an assay measuring protein expression, using cells transfected with cDNA encoding HiBit-tagged ABCD2 wild-type. Here we describe an assay for measuring the expression of the wild type of human ABCD2 (henceforth referred to as ABCD2 WT) and the use of this assay to measure the efficacy of compounds to increase the expression of ABCD2 WT. The assay was designed to characterize the efficacy and potency of compounds to increase the expression of ABCD2 WT by calculating an Emax and EC50 value. HEK-293 cells stably expressing ABCD2 WT (HEK-293/ABCD2 WT) were used for this assay and were maintained at 37° C. (5% CO2, humidified) in Dulbecco's Modified Eagle Medium (DMEM, Gibco product #12100) supplemented with 10% fetal bovine serum (Biosera product #FB-1058/500), 1% PenStrep (HDB product #15140-122), and 0.5 mg/mL puromycin (Gibco product #A11138-03). For the assay, the HEK-293/ABCD2 WT cells were seeded in white/opaque 384-well plates (Corning product #3570) at 10,000 cells/well in 20 μl growth medium and allowed to settle for 4 hours at 37° C. (5% CO2, humidified). Compound serial dilutions are prepared in DMSO as three hundred times (333×) the final concentration and using a dilution factor of 3 using Bravo (Agilent). After the four-hour incubation period, 60 nL of DMSO solutions are transferred to the assay plate.
(§2) Dose response curves include eleven doses with the top final concentration at 30 μM in 0.3% DMSO. Liquid handling is performed with ECHO 550 Acoustic Liquid Handler (Labcyte). After addition of compound treatment, cells are incubated for 24 hours at 37° C. (5% CO2, humidified). After the 24-hour treatment, plates are allowed to equilibrate to room temperature for 10 minutes. Using Dragonfly Automated Liquid Handler (TTP LabTech), 20 μl of HiBit lytic assay reagent (Promega, product #N3040), which is prepared according to manufacturer's instructions, is added to each well. The plates are rotated at room temperature for 2 minutes and incubated for 1 hour at 25° C. before luminescent signal is acquired using an EnVision Multimode Plate Reader (PerkinElmer).
In general terms: HiBiT is a short tag that completes a luciferase, so light tracks the accessible tagged protein.

Another test deals with T2, ABCB4 WT (Homo sapiens, UniProt P21439).
T2 construct: expressed in transfected cells
Kind of test: ABCB4 WT assay: HiBit protein expression. Particulars: HEK-293 cells stably expressing HiBit-tagged ABCB4 WT; 24 h treatment; top concentration 30 μM; read-out: ABCB4 WT EC50, Emax. Type of test: cell-based.
Source text: To assess activity against ABCB4, compounds were screened in an assay measuring protein expression, using cells transfected with cDNA encoding HiBit-tagged ABCB4 wild-type.
as §1, with “Described here is” for “To assess activity against ABCD2, the compounds were screened in an assay measuring protein expression, using cells transfected with cDNA encoding HiBit-tagged ABCD2 wild-type. Here we describe”, “ABCB4” for “ABCD2”, “(HEK-293/ABCB4” for “(HEK-293/ABCD2”, “HEK-293/ABCB4” for “HEK-293/ABCD2”
as §2
Results are presented below in Table 5 for ABCB4 WT.

T2 sequence (P21439 whole entry): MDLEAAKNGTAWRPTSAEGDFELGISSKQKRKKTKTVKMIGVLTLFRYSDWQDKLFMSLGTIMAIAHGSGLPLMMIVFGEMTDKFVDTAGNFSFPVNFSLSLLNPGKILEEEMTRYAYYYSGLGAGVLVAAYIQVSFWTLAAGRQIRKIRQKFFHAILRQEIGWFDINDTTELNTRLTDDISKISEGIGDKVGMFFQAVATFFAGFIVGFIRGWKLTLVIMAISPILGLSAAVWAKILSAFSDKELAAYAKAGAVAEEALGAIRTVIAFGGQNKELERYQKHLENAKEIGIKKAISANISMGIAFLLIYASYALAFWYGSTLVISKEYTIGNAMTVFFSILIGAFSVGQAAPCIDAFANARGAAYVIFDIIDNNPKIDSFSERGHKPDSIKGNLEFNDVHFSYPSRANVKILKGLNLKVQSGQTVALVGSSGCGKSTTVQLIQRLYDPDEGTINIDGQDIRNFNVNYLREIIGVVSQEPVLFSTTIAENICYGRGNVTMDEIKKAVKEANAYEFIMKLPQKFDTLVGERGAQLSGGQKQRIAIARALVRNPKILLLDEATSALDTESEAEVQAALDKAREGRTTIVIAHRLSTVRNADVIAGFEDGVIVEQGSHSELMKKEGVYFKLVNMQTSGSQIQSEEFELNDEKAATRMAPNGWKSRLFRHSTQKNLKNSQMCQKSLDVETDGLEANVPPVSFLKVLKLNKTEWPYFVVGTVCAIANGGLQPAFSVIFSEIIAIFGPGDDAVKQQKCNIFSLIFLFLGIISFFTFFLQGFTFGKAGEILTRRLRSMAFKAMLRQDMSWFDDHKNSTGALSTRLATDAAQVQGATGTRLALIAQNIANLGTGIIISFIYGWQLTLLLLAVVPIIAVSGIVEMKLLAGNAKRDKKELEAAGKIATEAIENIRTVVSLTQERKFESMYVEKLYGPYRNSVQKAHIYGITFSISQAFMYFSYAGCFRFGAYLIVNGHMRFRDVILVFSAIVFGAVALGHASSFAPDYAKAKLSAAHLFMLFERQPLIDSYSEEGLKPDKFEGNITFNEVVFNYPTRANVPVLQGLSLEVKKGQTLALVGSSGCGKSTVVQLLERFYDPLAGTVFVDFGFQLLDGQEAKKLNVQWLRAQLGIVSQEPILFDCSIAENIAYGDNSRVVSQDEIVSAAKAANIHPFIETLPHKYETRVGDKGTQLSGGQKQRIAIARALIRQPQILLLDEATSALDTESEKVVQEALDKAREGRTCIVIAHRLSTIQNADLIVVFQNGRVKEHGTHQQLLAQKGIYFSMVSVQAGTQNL

Consider `Cc1cc(C2CC2)nc(C)c1Oc1nc(-c2cncc(C#N)c2)ccc1NS(C)(=O)=O` [Compound I-4], for which the EC50 at ABCD2 WT and on ABCB4 WT was under 1 µM each time.
Regarding `Cc1cc(C)c(Oc2nc(-c3cncc(C#N)c3)ccc2NS(C)(=O)=O)c(C)n1` [Compound I-5], the half-maximal effective concentration (EC50) on ABCD2 WT and at ABCB4 WT was under 1 µM each time.
With `Cc1cc(C)c(Oc2nc(-c3ccc(C#N)nc3C)ccc2NS(C)(=O)=O)c(C)c1` [Compound I-6], the EC50 at ABCD2 WT was under 1 µM; at ABCB4 WT, at least 25 µM.
The corresponding values for `Cc1cc(C)c(Oc2nc(-c3ccc(C#N)nc3)ccc2NS(C)(=O)=O)c(C)n1` [Compound I-7] are under 1 µM and under 1 µM.
The corresponding values for `Cc1cc(C)c(Oc2nc(-c3cnc(C#N)c(Cl)c3)ccc2NS(C)(=O)=O)c(C)n1` [Compound I-8] are under 1 µM and under 1 µM.
In the case of `Cc1cc(C)c(Oc2nc(-c3cncc(Cl)c3)ncc2NS(C)(=O)=O)c(C)c1` [Compound I-9], the EC50 at ABCD2 WT is under 1 µM; at ABCB4 WT, at least 25 µM.
The corresponding values for `Cc1cc(C)c(Oc2nc(-c3cncc(C#N)c3)ncc2NS(C)(=O)=O)c(C)c1` [Compound I-10] are under 1 µM and at least 25 µM.
The corresponding values for `CNS(=O)(=O)c1ccc(-c2cncc(Cl)c2)nc1Oc1c(C)cc(C)cc1C` [Compound I-95] are under 1 µM and under 1 µM.
The corresponding values for `Cc1cc(C)c(Oc2nc(-c3cncc(Cl)c3)ccc2S(=O)(=O)N2CCCC2)c(C)c1` [Compound I-96] are 1 to 10 µM and 1 to 10 µM.
`Cc1cc(C)c(Oc2nc(-c3cncc(Cl)c3)ccc2S(=O)(=O)N(C)C)c(C)c1` [Compound I-97]: the EC50 on ABCD2 WT and at ABCB4 WT was 1 to 10 µM throughout.
In the case of `Cc1cc(C)c(Oc2nc(-c3cncc(Cl)c3)ccc2S(=O)(=O)NC2CC2)c(C)c1` [Compound I-98], the figures for the EC50 on ABCD2 WT and on ABCB4 WT were under 1 µM and under 25 µM, respectively.
The corresponding values for `Cc1cc(C)c(Oc2nc(-c3cncc(Cl)c3)ccc2S(=O)(=O)NC(C)(C)C)c(C)c1` [Compound I-99] are over 25 µM and at least 25 µM.
The corresponding values for `Cc1cc(C)c(Oc2nc(-c3cncc(Cl)c3)ccc2S(N)(=O)=O)c(C)c1` [Compound I-100] are under 1 µM and at least 25 µM.
The corresponding values for `Cc1cc(C)c(Oc2nc(-c3cccc(Cl)c3)ccc2S(=O)(=O)NC2CCOC2)c(C)c1` (stereo not drawn) [Compound I-101] are 1 to 10 µM and at least 25 µM.
As for `Cc1cc(C)c(Oc2nc(-c3cccc(Cl)c3)ccc2S(N)(=O)=O)c(C)c1` [Compound I-102], the figures for the EC50 on ABCD2 WT and at ABCB4 WT were over 25 µM and at least 25 µM, respectively.
The like results for `Cc1cc(C)c(Oc2nc(-c3cncc(Cl)c3)ccc2S(C)(=N)=O)c(C)c1` (stereo not drawn) [Compound I-103] were, in that order, 1 to 10 µM and under 1 µM.
The corresponding values for `Cc1cc(C)c(Oc2nc(-c3cncc(Cl)c3)ccc2S(C)(=O)=O)c(C)c1` [Compound I-104] are over 25 µM and 1 to 10 µM.
The corresponding values for `Cc1cc(C(F)(F)F)nc(C2CC2)c1Oc1nc(-c2cncc(C#N)c2)ccc1S(=O)(=O)NC1CC1` [Compound I-133] are under 1 µM and 1 to 10 µM.
For the compound `Cc1cc(C(F)F)nc(C2CC2)c1Oc1nc(-c2cncc(C#N)c2)ccc1N(C)S(=O)(=O)C1CC1` [Compound I-134], the EC50 was 1 to 10 µM on ABCD2 WT and under 1 µM on ABCB4 WT.
The corresponding values for `Cc1cc(C(F)F)nc(C2CC2)c1Oc1nc(-c2cncc(C#N)c2)ccc1N(C)S(C)(=O)=O` [Compound I-135] are 1 to 10 µM and under 1 µM.
The like results for `Cc1cc(C)c(Oc2nc(-c3cncc(C#N)c3)ccc2N(C)S(=O)(=O)c2cccnc2)c(C2CC2)n1` [Compound I-136] were, in that order, 1 to 10 µM and under 1 µM.
For the compound `Cc1cc(C(F)F)nc(C2CC2)c1Oc1nc(-c2cncc(C#N)c2)ccc1NS(C)(=O)=O` [Compound I-137], the EC50 on ABCD2 WT and at ABCB4 WT was under 1 µM in each case.
For the compound `CS(=O)(=O)Nc1ccc(-c2cncc(C#N)c2)nc1Oc1c(C2CC2)nc(C(F)(F)F)nc1C1CC1` [Compound I-138], the EC50 on ABCD2 WT and at ABCB4 WT was under 1 µM in each case.
For the compound `Cc1cc(C(F)(F)F)nc(C2CC2)c1Oc1nc(-c2cncc(C#N)c2)ccc1N(C)S(=O)(=O)C1CC1` [Compound I-139], the EC50 at ABCD2 WT is 1 to 10 µM; at ABCB4 WT, under 1 µM.
The corresponding values for `Cc1cc(C(F)(F)F)nc(C2CC2)c1Oc1nc(-c2cncc(C#N)c2)ccc1NS(=O)(=O)C1CC1` [Compound I-140] are under 1 µM and under 1 µM.
The like results for `Cc1cc(C(F)(F)F)nc(C2CC2)c1Oc1nc(-c2cncc(C#N)c2)ccc1NS(=O)(=O)C(C)C` [Compound I-141] were, in that order, under 1 µM and under 1 µM.
The like results for `Cc1nc(C(F)(F)F)nc(C2CC2)c1Oc1nc(-c2cncc(C#N)c2)ccc1N(C)S(C)(=O)=O` [Compound I-142] were, in that order, 1 to 10 µM and at least 25 µM.
With `Cc1nc(C2COC2)nc(C2CC2)c1Oc1nc(-c2cncc(C#N)c2)ccc1NS(C)(=O)=O` [Compound I-143], the EC50 at ABCD2 WT and on ABCB4 WT was under 1 µM each time.
For `Cc1nc(C(F)F)nc(C2CC2)c1Oc1nc(-c2cncc(C#N)c2)ccc1NS(C)(=O)=O` [Compound I-144], the EC50 at ABCD2 WT is over 25 µM; on ABCB4 WT, under 1 µM.
Consider `Cc1nc(C(F)(F)F)nc(C2CC2)c1Oc1nc(-c2cncc(C#N)c2)ccc1NS(C)(=O)=O` [Compound I-145], for which the EC50 on ABCD2 WT and on ABCB4 WT was under 1 µM in each case.
`Cc1cc(C2CC2)nc(C2CC2)c1Oc1nc(-c2cncc(C#N)c2)ccc1N(C)S(C)(=O)=O` [Compound I-146]: the EC50 on ABCD2 WT was 10 to 25 µM; at ABCB4 WT it was at least 25 µM.
The corresponding values for `Cc1cc(C)c(Oc2nc(-c3cncc(C#N)c3)ccc2NS(=O)(=O)c2cccnc2)c(C2CC2)n1` [Compound I-147] are under 1 µM and under 25 µM.
The like results for `CCS(=O)(=O)N(C)c1ccc(-c2cncc(C#N)c2)nc1Oc1c(C)cc(C(F)(F)F)nc1C1CC1` [Compound I-148] were, in that order, under 1 µM and under 1 µM.

The EC50 is the concentration giving half of the maximal effect.
